Publication PMC10746543, “Design principles for cyclin K molecular glue degraders” (Nature Chemical Biology, 2023)
Where “and” joins values, the source holds several entries; their conditions need not be identical. Equal entries are not always repeated. Where two headings read alike, the source gives them in different places.

What was measured:
[1] = biological target: T1, CDK12–cyclin K and DDB1 (Homo sapiens, UniProt Q16531+Q9NYV4, K965R); assay: TR-FRET ternary complex formation assay (compound titration); assay type: binding
T1 construct: His6–CDK12 (a.a. 713–1,052); full-length or beta-propeller B domain deletion (ΔBPB: a.a. 396–705 deleted) constructs of His6–DDB1ΔBPB, StrepII–Avi–DDB1, or His6–Spy–DDB1; made in house; host or cells: Trichoplusia ni High Five insect cells (baculovirus)
Method in brief: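 A time delay of 70 μs preceded acquisition, limiting background fluorescence; the ratio of emission at 520 versus 490 nm gave the TR-FRET value.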

[2] = test system: cyclin K–eGFP degradation reporter; assay: Cyclin K reporter stability analysis (dual-color cyclin K–eGFP reporter); assay type: cell-based, human; conditions: source data sheet correlations; read-out: DC50
Method in brief: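 Readout: flow-cytometric eGFP/mCherry ratio (geometric means, round mCherry+ gate) relative to the average of three DMSO wells. Reporter line was HEK293T–Cas9, treated 5 h with compound.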

[3] = test system: HEK293T cells; assay: Drug sensitivity assay (CellTiter-Glo viability) with or without MLN4924 pretreatment; assay type: cell-based, human; conditions: Supplementary Table 2
Method in brief: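 Cas9-expressing HEK293T cells receive either vehicle or 100 nM MLN4924, then compounds 2 h afterwards. After three days, luminescence-based viability is measured and calculated relative to DMSO.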

[4] = biological target: CDK12–cyclin K (Homo sapiens, UniProt Q9NYV4); assay: Lanthascreen kinase binding assay, CDK12; conditions: for Lanthascreen raw signal, sheet CDK12: series r1, duplicates
Experimental: (§1) Lanthascreen experiments were performed using commercially available reagents (Thermo Fisher) and according to the manufacturer’s instructions.

[5] = biological target: T2, CDK9–cyclin T (Homo sapiens, UniProt P50750); assay: Lanthascreen kinase binding assay, CDK9; conditions: for Lanthascreen TR-FRET signal (raw ratio), sheet CDK9: first titration set (r1), duplicates
T2 construct: purchased Thermo Fisher
Experimental: as §1

[6] = biological target: T3, CDK2–cyclin A (Homo sapiens, UniProt P24941); assay: Lanthascreen kinase binding assay, CDK2; conditions: for Lanthascreen signal, sheet CDK2: raw replicates, experiment r1-r11
T3 construct: purchased Thermo Fisher
Experimental: as §1

CDK12–cyclin K, sequence (Q9NYV4 713-1052): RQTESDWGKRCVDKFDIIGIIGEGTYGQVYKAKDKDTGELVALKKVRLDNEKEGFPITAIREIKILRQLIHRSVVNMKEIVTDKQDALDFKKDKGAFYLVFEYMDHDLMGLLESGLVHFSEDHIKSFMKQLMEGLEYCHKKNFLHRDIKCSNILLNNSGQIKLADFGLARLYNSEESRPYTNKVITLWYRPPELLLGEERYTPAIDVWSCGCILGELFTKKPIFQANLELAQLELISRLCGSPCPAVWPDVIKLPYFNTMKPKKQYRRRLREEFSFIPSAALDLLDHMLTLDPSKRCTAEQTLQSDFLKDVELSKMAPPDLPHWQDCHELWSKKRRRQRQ
CDK12–cyclin K, sequence (O75909 1-267 partner limits assumed): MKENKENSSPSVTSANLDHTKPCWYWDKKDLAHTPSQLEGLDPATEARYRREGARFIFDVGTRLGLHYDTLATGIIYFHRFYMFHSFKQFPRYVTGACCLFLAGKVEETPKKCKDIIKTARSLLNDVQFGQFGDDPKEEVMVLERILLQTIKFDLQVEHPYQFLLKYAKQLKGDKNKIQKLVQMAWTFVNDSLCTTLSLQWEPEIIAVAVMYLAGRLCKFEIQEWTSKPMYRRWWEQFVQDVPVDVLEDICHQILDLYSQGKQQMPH
T2 sequence (P50750 whole entry): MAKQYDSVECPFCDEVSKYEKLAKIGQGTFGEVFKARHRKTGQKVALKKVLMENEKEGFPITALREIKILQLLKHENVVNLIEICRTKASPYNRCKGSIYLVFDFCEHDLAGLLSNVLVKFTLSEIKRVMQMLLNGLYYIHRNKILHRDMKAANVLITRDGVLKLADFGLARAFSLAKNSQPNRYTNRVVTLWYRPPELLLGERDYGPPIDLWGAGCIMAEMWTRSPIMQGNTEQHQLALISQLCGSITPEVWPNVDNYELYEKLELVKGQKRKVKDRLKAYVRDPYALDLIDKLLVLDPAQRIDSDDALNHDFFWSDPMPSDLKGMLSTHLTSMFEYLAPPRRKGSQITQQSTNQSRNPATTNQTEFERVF
T2 sequence (O60563 whole entry partner): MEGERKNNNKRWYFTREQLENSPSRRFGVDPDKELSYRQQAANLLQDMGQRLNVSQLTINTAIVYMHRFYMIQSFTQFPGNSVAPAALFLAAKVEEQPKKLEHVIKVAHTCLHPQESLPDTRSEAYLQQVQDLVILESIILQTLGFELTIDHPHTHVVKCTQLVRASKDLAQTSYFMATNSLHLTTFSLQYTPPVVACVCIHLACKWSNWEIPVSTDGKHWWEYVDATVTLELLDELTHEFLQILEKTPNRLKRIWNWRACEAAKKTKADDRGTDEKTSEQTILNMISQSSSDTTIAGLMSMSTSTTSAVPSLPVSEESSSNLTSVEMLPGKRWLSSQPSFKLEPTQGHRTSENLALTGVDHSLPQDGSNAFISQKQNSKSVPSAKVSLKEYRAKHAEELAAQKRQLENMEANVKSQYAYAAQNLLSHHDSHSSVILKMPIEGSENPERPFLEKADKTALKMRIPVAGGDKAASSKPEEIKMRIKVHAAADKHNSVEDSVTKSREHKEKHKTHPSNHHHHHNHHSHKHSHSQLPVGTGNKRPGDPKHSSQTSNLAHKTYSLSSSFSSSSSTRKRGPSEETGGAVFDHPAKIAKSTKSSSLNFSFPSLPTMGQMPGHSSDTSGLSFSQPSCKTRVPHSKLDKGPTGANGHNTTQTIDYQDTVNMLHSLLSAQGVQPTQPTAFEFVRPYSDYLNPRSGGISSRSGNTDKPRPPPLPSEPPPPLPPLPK
T1 sequence (Q9NYV4 713-1052 K965R): as the sequence (Q9NYV4 713-1052) above, with K253R counted along it
T1 sequence (O75909 1-267 partner): as the sequence (O75909 1-267 partner limits assumed) above
T1 sequence (Q16531 whole entry): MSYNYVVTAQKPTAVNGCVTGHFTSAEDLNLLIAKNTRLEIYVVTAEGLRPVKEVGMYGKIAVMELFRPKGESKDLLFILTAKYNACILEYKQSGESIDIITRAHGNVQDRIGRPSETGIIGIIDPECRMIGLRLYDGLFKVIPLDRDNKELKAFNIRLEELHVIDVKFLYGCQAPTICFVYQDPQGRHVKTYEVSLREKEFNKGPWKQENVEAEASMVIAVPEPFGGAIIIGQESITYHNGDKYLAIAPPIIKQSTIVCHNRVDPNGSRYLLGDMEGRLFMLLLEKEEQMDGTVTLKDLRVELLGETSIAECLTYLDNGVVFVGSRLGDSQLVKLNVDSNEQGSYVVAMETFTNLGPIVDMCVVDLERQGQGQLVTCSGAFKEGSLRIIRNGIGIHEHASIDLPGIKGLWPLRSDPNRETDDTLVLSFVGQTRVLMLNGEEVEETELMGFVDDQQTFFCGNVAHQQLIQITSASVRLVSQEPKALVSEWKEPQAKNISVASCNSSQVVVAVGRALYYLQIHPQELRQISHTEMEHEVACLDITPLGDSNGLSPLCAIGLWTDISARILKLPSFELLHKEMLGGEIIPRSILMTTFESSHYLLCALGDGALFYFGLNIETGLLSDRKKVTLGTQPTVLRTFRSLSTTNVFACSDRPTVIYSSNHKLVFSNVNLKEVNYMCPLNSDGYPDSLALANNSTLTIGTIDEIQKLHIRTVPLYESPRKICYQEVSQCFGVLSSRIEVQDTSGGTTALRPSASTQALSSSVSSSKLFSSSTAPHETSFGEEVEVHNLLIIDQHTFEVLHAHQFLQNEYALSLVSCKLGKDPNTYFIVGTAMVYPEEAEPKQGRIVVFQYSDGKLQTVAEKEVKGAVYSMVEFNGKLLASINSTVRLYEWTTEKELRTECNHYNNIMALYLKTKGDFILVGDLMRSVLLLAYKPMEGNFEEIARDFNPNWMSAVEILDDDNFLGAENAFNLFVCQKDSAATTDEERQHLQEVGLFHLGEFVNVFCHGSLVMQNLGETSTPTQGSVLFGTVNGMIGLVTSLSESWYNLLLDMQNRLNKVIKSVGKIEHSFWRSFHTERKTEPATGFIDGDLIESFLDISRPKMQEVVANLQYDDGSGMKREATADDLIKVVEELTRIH

Cn1cc(-c2cnn3c(NCc4nc5cc(Cl)c(Cl)cc5[nH]4)nc(N4CCOCC4)nc23)cn1 [DS74]
TR-FRET signal at compound concentration 0.468 nM ([1]; compound concentration 0.468 nM, raw replicate titration data): 0.2798 and 0.3065 and 0.1782 and 0.1849
TR-FRET signal at compound concentration 2.16 nM ([1]; compound concentration 2.16 nM, raw replicate titration data): 0.3614 and 0.3498 and 0.2211 and 0.2229
TR-FRET signal at compound concentration 3.6 nM ([1]; compound concentration 3.6 nM, raw replicate titration data): 0.435 and 0.4393 and 0.2978 and 0.2973
TR-FRET signal at compound concentration 7.92001 nM ([1]; compound concentration 7.92001 nM, raw replicate titration data): 0.5995 and 0.6274 and 0.4373 and 0.4353
TR-FRET signal at compound concentration 15.84 nM ([1]; compound concentration 15.84 nM, raw replicate titration data): 0.9577 and 0.9944 and 0.7392 and 0.7343
TR-FRET signal at compound concentration 30.96 nM ([1]; compound concentration 30.96 nM, raw replicate titration data): 1.593 and 1.564 and 1.2847 and 1.436
TR-FRET signal at compound concentration 62.6401 nM ([1]; compound concentration 62.6401 nM, raw replicate titration data): 1.875 and 1.832 and 1.71 and 1.6908
TR-FRET signal at compound concentration 125.28 nM ([1]; compound concentration 125.28 nM, raw replicate titration data): 1.954 and 1.862 and 1.734 and 1.741
TR-FRET signal at compound concentration 244.8 nM ([1]; compound concentration 244.8 nM, raw replicate titration data): 2.043 and 1.982 and 1.799 and 1.754
TR-FRET signal at compound concentration 993.601 nM ([1]; compound concentration 993.601 nM, raw replicate titration data): 2.0625 and 2.016 and 1.825 and 1.774
TR-FRET signal at compound concentration 2001.6 nM ([1]; compound concentration 2001.6 nM, raw replicate titration data): 1.983 and 1.981 and 1.797 and 1.763
EC50 ([1]; in vitro complex formation, 50 nM CDK12–cyclin K, 100 nM DDB1, text and figures, read-out: TR-FRET EC50): 20 ± 1 nM
EC50 ([1]; sheet MOESM7, read-out: log TR-FRET EC50 (converted)): 19.8 nM
EC50 ([1]; source data sheet correlations, read-out: TR-FRET EC50): 19.8 nM
DC50 [2]: 51 nM
EC50 ([3]; Homo sapiens, HEK-293T, HEK293T viability, 72 h, compound alone, read-out: Cellular assays EC50): 104 nM
Toxicity rescue ([3]; MLN4924-mediated cytotoxicity rescue, 10 µM used where n.d.): 916%
IC50 ([4]; Supplementary Table 2, read-out: Lanthascreen IC50 [nM] CDK12): 25 nM
Lanthascreen raw signal, sheet CDK12 ([4]; compound 1.02544 nM): 0.009355 and 0.008483
Lanthascreen raw signal, sheet CDK12 ([4]; compound 3.15521 nM): 0.00952 and 0.009538
Lanthascreen raw signal, sheet CDK12 ([4]; compound 9.46563 nM): 0.009122 and 0.008857
Lanthascreen raw signal, sheet CDK12 ([4]; compound 31.5521 nM): 0.006579 and 0.007668
Lanthascreen raw signal, sheet CDK12 ([4]; compound 99.3891 nM): 0.005593 and 0.007192
Lanthascreen raw signal, sheet CDK12 ([4]; compound 315.521 nM): 0.006881 and 0.006508
Lanthascreen raw signal, sheet CDK12 ([4]; compound 3155.21 nM): 0.007229 and 0.005774
Lanthascreen raw signal, sheet CDK12 ([4]; compound 10002 nM): 0.005716 and 0.005184
IC50 ([5]; Supplementary Table 2, read-out: Lanthascreen IC50 [nM] CDK9): 2580 nM
Lanthascreen TR-FRET signal (raw ratio), sheet CDK9 ([5]; compound 1.02544 nM): 0.01642 and 0.01407
Lanthascreen TR-FRET signal (raw ratio), sheet CDK9 ([5]; compound 3.15521 nM): 0.01297 and 0.01448
Lanthascreen TR-FRET signal (raw ratio), sheet CDK9 ([5]; compound 9.46563 nM): 0.01462 and 0.01504
Lanthascreen TR-FRET signal (raw ratio), sheet CDK9 ([5]; compound 31.5521 nM): 0.01422 and 0.01715
Lanthascreen TR-FRET signal (raw ratio), sheet CDK9 ([5]; compound 99.3891 nM): 0.0151 and 0.01375
Lanthascreen TR-FRET signal (raw ratio), sheet CDK9 ([5]; compound 315.521 nM): 0.01436 and 0.01406
Lanthascreen TR-FRET signal (raw ratio), sheet CDK9 ([5]; compound 3155.21 nM): 0.01124 and 0.01046
Lanthascreen TR-FRET signal (raw ratio), sheet CDK9 ([5]; compound 10002 nM): 0.00772 and 0.01002
Lanthascreen signal, sheet CDK2 ([6]; Compound 1.02544 nM): 0.01044 and 0.01012
Lanthascreen signal, sheet CDK2 ([6]; Compound 3.15521 nM): 0.0108 and 0.009644
Lanthascreen signal, sheet CDK2 ([6]; Compound 9.46563 nM): 0.01089 and 0.009432
Lanthascreen signal, sheet CDK2 ([6]; Compound 31.5521 nM): 0.01098 and 0.01188
Lanthascreen signal, sheet CDK2 ([6]; Compound 99.3891 nM): 0.011 and 0.01075
Lanthascreen signal, sheet CDK2 ([6]; Compound 315.521 nM): 0.009926 and 0.01051
Lanthascreen signal, sheet CDK2 ([6]; Compound 3155.21 nM): 0.01049 and 0.01005
Lanthascreen signal, sheet CDK2 ([6]; Compound 10002 nM): 0.009311 and 0.007215
IC50 ([6]; Lanthascreen, average, Extended Data Fig. 8, read-out: CDK2 IC50): > 10000 nM
IC50 ([6]; Supplementary Table 2, read-out: Lanthascreen IC50 [nM] CDK2): > 10000 nM
